Experimental data reported in patent US4463014A, “Cyclopropane carboxylates” (Uclaf; Roussel, priority 1981, dated 1984).

Experiments:
Format in all cases: in vivo
houseflies [1] = assay: Knockdown activity against houseflies; conditions: female houseflies 4 days old, sprayed in Kearns and March chamber, 0.25 g/liter, 5% acetone and 95% Isopar L
Experimental: Female houseflies 4 days old were sprayed in a Kearns and March chamber at 2 ml per second with a solution of 5% of acetone and 95% of Isopar L with 50 insects being used for each dose at a concentration of 0.25 g/liter and readings were taken every 30 seconds for 10 minutes and after 15 minutes to determine the KT50 by the usual method.

houseflies [2] = assay: Lethal activity against houseflies (topical application); conditions: female houseflies 4 to 5 days old, topical 1 μl acetone solution on dorsal thorax, dead counted 24 hours later
Experimental: 50 female houseflies 4 to 5 days old per treatment received a topical application of 1 μl of an acetone solution of the test compound on the dorsal thorax with an Arnold micromanipulator and the number of dead flies was determined 24 hours later. The DL50 or dose in nanograms per fly necessary to kill 50% of the insects were determined and the results are reported in Table II.

beetles = assay: Lethal activity against beetles (contact with film on glass); conditions: contact with film on glass from acetone solutions
Text: The tests were effected by contact with a film on glass deposited by pipette of acetone solutions of different concentrations on the bottom of a glass Petrie dish with sides previously coated with talc to avoid loss of insects.

[3] = tested on: larvae of Spodoptera littoralis; assay: Lethal effect against Spodoptera larvae (topical application); conditions: Spodoptera littoralis larvae 4th stage, topical 1 μl acetone solution, dead counted 48 hours later
Experimental: 1 μl of acetone solution of the test compound was applied with an Arnold micromanipulator to the dorsal thorax of 15 larvae of Spodoptera littoralis in the 4th stage of development which are about 10 days old at 24° C. and 65% relative humidity. After treatment, the larvae were placed on an artificial nutritive media and the number of dead was determined 48 hours later.

[4] = tested on: larvae of Acanthocelides obtectus; assay: Lethal activity against Acanthocelides obtectus; conditions: Test D repeated

Structure (SMILES) | KT50 (houseflies [1]) | DL50 namograms per insects (houseflies [2]) | CL50 in mg/m^2 (beetles) | DL50 ng per insect [3] | DL50 in ng per insect [4]
CC1(C)[C@H](C=C2CCCC2)[C@H]1C(=O)O[C@H](C#N)c1ccc(F)c(Oc2ccccc2)c1 [Example 8, (S) cyano-(4-fluoro-3-phenoxy-phenyl)-methyl (1R,trans) 2,2-dimethyl-3-cyclopentylidenemethyl-cyclopropane-1-carboxylate] | 6.1 min | 0.98 namograms per insects | 0.054 mg/m^2 | 14.9 ng per insect | 20.1 ng per insect
CC1(C)[C@H](C=C2CCSC2=O)[C@H]1C(=O)O[C@H](C#N)c1ccc(F)c(Oc2ccccc2)c1 [Example 10, (S) cyano-(4-fluoro-3-phenoxy-phenyl)-methyl (1R,trans) 2,2-dimethyl-3-[(dihydro-2-oxo-3-(2H)-thienylidene)-methyl]-cyclopropane-1-carboxylate] | 3.5 min | – | – | – | –
CC1(C)[C@H](C(=O)O[C@H](C#N)c2ccc(F)c(Oc3ccccc3)c2)[C@@H]1C=C1CCCC1 [Example 9, (S) cyano-(4-fluoro-3-phenoxy-phenyl)-methyl (1R,cis) 2,2-dimethyl-3-cyclopentylidenemethyl-cyclopropane-1-carboxylate] | 4.4 min | 0.87 namograms per insects | 0.083 mg/m^2 | 5.1 ng per insect | 8.6 ng per insect
CC1(C)[C@H](C(=O)O[C@H](C#N)c2ccc(F)c(Oc3ccccc3)c2)[C@@H]1C(Br)C(Cl)(Cl)Br (stereo partly drawn) [Example 3, (S) cyano-(4-fluoro-3-phenoxy-phenyl)-methyl (1R,cis) 2,2-dimethyl-3-[1(R,S) 2-dibromo-2,2-dichlor-ethyl]-cyclopropane-1-carboxylate] | 2.9 min | 1.02 namograms per insects | 0.021 mg/m^2 | 1.4 ng per insect | 7.7 ng per insect
CC(C)[C@H](C(=O)O[C@H](C#N)c1ccc(F)c(Oc2ccccc2)c1)c1ccc(OC(F)F)cc1 [Example 12, (S) cyano (4-fluoro-3-phenoxy-phenyl)-methyl 2 (S)-[p-difluoromethoxy-phenyl]-3-methyl-butyrate] | 3.6 min | 4.9 namograms per insects | 0.23 mg/m^2 | 44.3 ng per insect | 22.2 ng per insect
CC1(C)[C@H](C=C(F)F)[C@H]1C(=O)O[C@H](C#N)c1ccc(F)c(Oc2ccccc2)c1 [Example 6] | 1.6 min | 8.9 namograms per insects | 0.126 mg/m^2 | 3.4 ng per insect | 7.1 ng per insect
CC1(C)[C@H](C(=O)O[C@H](C#N)c2ccc(F)c(Oc3ccccc3)c2)[C@@H]1C=C1CC1 [Example 14, (S) cyano-(4-fluoro-3-phenoxy-phenyl)-methyl (1R,cis) 2,2-dimethyl-3-cyclopropylidene-methyl-cyclopropane-1-carboxylate] | 3.13 min | 1.44 namograms per insects | 0.049 mg/m^2 | 4.25 ng per insect | 22.7 ng per insect
CC1(C)[C@H](C(=O)O[C@H](C#N)c2ccc(F)c(Oc3ccccc3)c2)[C@@H]1C=C1CCSC1=O [Example 11, (S) cyano-(4-fluoro-3-phenoxy-phenyl)-methyl (1R,cis) 2,2-dimethyl-3-[(dihydro-2-oxo-3-(2H)-thienylidene)-methyl]-cyclopropane-1-carboxylate] | 3.5 min | 21.3 namograms per insects | – | 8.2 ng per insect | 50.6 ng per insect
CC1(C)[C@H](C(=O)O[C@H](C#N)c2ccc(F)c(Oc3ccccc3)c2)[C@H]1C(Br)C(Br)(Br)Br (stereo partly drawn) [Example 4, (S) cyano-(4-fluoro-3-phenoxy-phenyl)-methyl (1R,trans) 2,2-dimethyl-3-[1(R,S)2,2,2-tetrabromoethyl]-cyclopropane-1-carboxylate] | 2.0 min | 1.04 namograms per insects | 0.074 mg/m^2 | 6.5 ng per insect | 6.7 ng per insect
CC1(C)C(C(=O)O[C@H](C#N)c2ccc(F)c(Oc3ccccc3)c2)C1(C)C [Example 1, (S) cyano-(4-fluoro-3-phenoxy-phenyl)-methyl 2,2,3,3-tetramethyl-cyclopropane-1-carboxylate] | 2.0 min | 5.3 namograms per insects | 0.22 mg/m^2 | 8.4 ng per insect | 8.12 ng per insect
CC1(C)[C@H](C=C2CCC2)[C@H]1C(=O)O[C@H](C#N)c1ccc(F)c(Oc2ccccc2)c1 [Example 13, (S) cyano-(4-fluoro-3-phenoxy-phenyl)-methyl (1R,trans) 2,2-dimethyl-3-cyclobutylidene-methyl-cyclopropane-1-carboxylate] | 2.74 min | 0.97 namograms per insects | 0.029 mg/m^2 | 5.8 ng per insect | 17.9 ng per insect
CC1(C)[C@H](C(=O)O[C@H](C#N)c2ccc(F)c(Oc3ccccc3)c2)[C@@H]1C=C(F)F [Example 7, (S) cyano-(4-fluoro-3-phenoxy-phenyl)-methyl (1R,cis) 2,2-dimethyl-3-[2,2-difluoroethenyl]-cyclopropane-1-carboxylate] | 1.7 min | 1.9 namograms per insects | 0.029 mg/m^2 | 2.2 ng per insect | 7.4 ng per insect
CC1(C)[C@H](C(=O)O[C@H](C#N)c2ccc(F)c(Oc3ccccc3)c2)[C@@H]1C(Br)C(Br)(Br)Br (stereo partly drawn) [Example 5, (S) cyano-(4-fluoro-3-phenoxy-phenyl)-methyl (1R,cis) 2,2-dimethyl-3-[1,(R,S) 2,2,2-tetrabromoethyl]-cyclopropane-1-carboxylate] | 4.8 min | 0.58 namograms per insects | 0.037 mg/m^2 | 1.6 ng per insect | 16.1 ng per insect
CC1(C)[C@H](C(=O)O[C@H](C#N)c2ccc(F)c(Oc3ccccc3)c2)[C@@H]1C=C1CCC1 [Example 16, (S) cyano-(4-fluoro-3-phenoxy-phenyl)-methyl (1R,cis) 2,2-dimethyl-3-cyclobutylidenemethyl-cyclopropane-1-carboxylate] | 2.89 min | 0.639 namograms per insects | 0.018 mg/m^2 | 4.5 ng per insect | 12.3 ng per insect
CC1(C)[C@H](C=C2CC2)[C@H]1C(=O)O[C@H](C#N)c1ccc(F)c(Oc2ccccc2)c1 [Example 15, (S) cyano-(3-phenoxy-4-fluoro-phenyl)-methyl (1R,trans) 2,2-dimethyl-3-cyclopropylidene-methyl-cyclopropane-1-carboxylate] | 2.85 min | 2.04 namograms per insects | 0.137 mg/m^2 | 4.6 ng per insect | 31.2 ng per insect
CC1(C)[C@H](C(=O)O[C@H](C#N)c2ccc(F)c(Oc3ccccc3)c2)[C@H]1C(Br)C(Cl)(Cl)Br (mixture of isomers) [Example 2, (S) cyano-(4-fluoro-3-phenoxy-phenyl)-methyl (1R,trans) 2,2-dimethyl-3-[1 (R,S), 2-dibromo-2,2-dichloroethyl]-cyclopropane-1-carboxylate] | 2.8 min | 1.14 namograms per insects | 0.084 mg/m^2 | 6.2 ng per insect | 10.9 ng per insect
